Experimental data from PubChem BioAssay (NCI).
Values joined by “and” are separate entries in the source; they are usually repeats but may differ in a detail not shown here. Identical values can stand only once.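 Results reflect a 48-hour exposure of cells in 96-well plates to compound at five concentrations. GI50 is the concentration that inhibits growth by half. TGI denotes the concentration required for complete inhibition of growth.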

How the values were obtained:
Test in all cases: NCI-60 cell line screen, 48 h
[1] = system: DU-145 prostate
[2] = system: COLO 205 colon
[3] = system: MALME-3M melanoma
[4] = system: NCI-H23 lung
[5] = system: M14 melanoma
[6] = system: LOX IMVI melanoma
[7] = system: SR leukemia
[8] = system: NCI/ADR-RES ovarian
[9] = system: SF-295 CNS
[10] = system: MOLT-4 leukemia

Row | SMILES | GI50 [1] | TGI [1] | GI50 [2] | TGI [2] | GI50 [3] | TGI [3] | GI50 [4] | TGI [4] | GI50 [5] | TGI [5] | GI50 [6] | TGI [6] | GI50 [7] | TGI [7] | GI50 [8] | TGI [8] | GI50 [9] | TGI [9] | GI50 [10] | TGI [10]
1 | C=C1C(=O)O[C@H]2[C@H]1CC/C(COC(=O)NCc1cccc(OC)c1)=C\CC[C@@]1(C)O[C@@H]21 | 1.58 µM | 3.04 µM | 1.68 µM | 3.41 µM | 1.74 µM | 3.53 µM | 3.07 µM | 10.3 µM | 2.08 µM | 5.16 µM | 1.51 µM | 3.01 µM | 1.3 µM | 12 µM | 3.07 µM | 12.3 µM | 9.76 µM | 21.7 µM | 2.38 µM | 7.19 µM
2 | Cc1cccc2cc3ccc4ccccc4c3cc12 |  | > 100 µM |  | 39 µM |  | > 100 µM |  | > 100 µM |  | > 100 µM |  | > 100 µM |  | 47.4 µM |  | > 100 µM |  | > 100 µM |  | 70.9 µM
3 | CN1CCN(c2ccc([N+](=O)[O-])c3no[n+]([O-])c23)CC1 | 0.302 µM | 1.99 µM and 1.28 µM | 0.942 µM | 2.33 µM and 2.41 µM | 0.378 µM | 0.712 µM and 1.08 µM | 0.173 µM | 0.389 µM and 1.02 µM | 0.177 µM | 1.7 µM and 0.927 µM | 0.157 µM | 1.14 µM and 0.612 µM | 0.0201 µM | 0.0274 µM and 0.0936 µM | 0.286 µM | 2.46 µM and 1.47 µM | 0.292 µM | 1.82 µM and 1.59 µM | 0.0645 µM | 
4 | C[C@@H]1CCC2[C@@H](C)[C@H](OC(=O)CCC(=O)NCCNC(=O)Cc3cc(=O)oc4cc(N(C)C)ccc34)O[C@@H]3O[C@]4(C)CC[C@@H]1C23OO4 (some centres not stated) | 10.3 µM | 24 µM | 2.62 µM | 15.2 µM | 2.02 µM | > 100 µM | 0.749 µM | 46.6 µM | 2.13 µM | > 74.5 µM | 0.566 µM | 2.31 µM | 0.561 µM | 6.83 µM | 1.19 µM | 22.9 µM | 2.04 µM | > 100 µM | 1.75 µM | 37.9 µM
5 | COc1cc2c(cc1-c1c(C)noc1C)ncc1[nH]c(=O)n([C@H](C)c3ccccn3)c12 | 17.3 µM | > 100 µM | 0.241 µM | > 35.6 µM | 1.05 µM | 76.2 µM | 6.22 µM | > 100 µM | 3.19 µM | > 100 µM | 0.352 µM | 20.3 µM | 0.0756 µM | > 100 µM | 10.9 µM | > 100 µM | 0.649 µM | 57.4 µM | 4.08 µM | 99.3 µM
6 | CC(C)c1ccc(O)c(O)c(=O)c1 (tested in a mixture with another compound) |  | 33.7 µM |  | 17.1 µM |  | 5.44 µM |  | > 26.3 µM |  | 15.5 µM |  | 27.2 µM |  | 4.02 µM |  | > 36.9 µM |  | > 100 µM |  | 5.53 µM
7 | CN(C)CCC(=O)NCc1c2nc3ccccc3nc2n2ccccc12 | 12.3 µM | > 100 µM | 73.3 µM | > 100 µM |  |  | 65.6 µM | > 100 µM | 26.3 µM | 69.5 µM | 21 µM | 40.4 µM | 16.9 µM | 41.8 µM | 47.2 µM | > 100 µM | 61.1 µM | > 100 µM | 38.8 µM | > 100 µM
8 | C=C(C)C1CCC2(CO)C(O)CC3(C)C(CCC4C5(C)CCC(O)C(C)(C)C5CCC43C)C12 (configuration not stated) |  | > 100 µM |  |  |  | 32 µM |  |  |  | > 100 µM |  | 24.2 µM |  | > 100 µM |  | 81.5 µM |  | 10.3 µM |  | > 100 µM
9 | Cc1ccc2oc(=O)cc(C3c4ccc([nH]4)C(c4cc(=O)oc5ccc(C)cc45)c4ccc([nH]4)C(c4cc(=O)oc5ccc(C)cc45)c4ccc([nH]4)C(c4cc(=O)oc5ccc(C)cc45)c4ccc3[nH]4)c2c1 (configuration not stated) | 0.0391 µM | 1.8 µM | 0.165 µM | 0.353 µM | 0.131 µM | 2.85 µM | 0.0574 µM | 1.58 µM | 0.0253 µM | 0.0766 µM | 0.0365 µM | 1.23 µM | 0.0417 µM |  | 0.0313 µM | 1.1 µM | 0.027 µM | 0.284 µM |  | 
10 | O=C(Nc1ccc([N+](=O)[O-])cc1)c1cc2ccccc2cc1O | 0.484 µM | > 100 µM | 2.47 µM | 6.41 µM | 0.258 µM | 1.11 µM | 0.294 µM | 1.42 µM |  |  | 0.405 µM |  | 0.274 µM | 1.05 µM | 0.314 µM | 3.13 µM | 1.15 µM | 3.17 µM | 0.675 µM | > 21.1 µM
11 | CCCCCC/C=C\CCCCCCCCCc1c(O)c(OC)cc(O)c1CN(C)C |  | 36 µM |  | 4.43 µM |  |  |  | 23.1 µM |  | 27.8 µM |  | > 100 µM |  | 4.23 µM |  | 37 µM |  | 16.2 µM |  | 4.5 µM
12 | CC1CCC(C#N)(NOC2=NCCN2)CC1 (configuration not stated) | 39.9 µM | > 100 µM | 36 µM | > 100 µM |  |  | 34 µM | > 100 µM | 46.4 µM | > 100 µM | 5.33 µM | 20.2 µM | 38.7 µM | > 100 µM | > 100 µM | > 100 µM | 23.6 µM | 93.4 µM | 37.3 µM | > 100 µM
13 | COc1ccc(NCc2c(O)ccc3ccccc23)cc1 |  | > 100 µM |  | 94.3 µM |  | 38.8 µM |  | > 100 µM |  | 47.6 µM |  | 29.4 µM |  | 39.5 µM |  | > 100 µM |  | > 100 µM |  | 
14 | CCOC(CN(C)C(=O)OCC(Cl)(Cl)Cl)OCC |  | > 100 µM |  | > 100 µM |  |  |  | > 100 µM |  | > 100 µM |  | > 100 µM |  | > 100 µM |  | > 100 µM |  | > 100 µM |  | > 100 µM
15 | Cc1[nH]ccc2cc3nc4ccccc4c3cc12 | 2.18 µM | 5.83 µM | 2.35 µM | 7.15 µM | 2.27 µM | 7.94 µM | 2.55 µM | 14.5 µM | 2.47 µM | 11.1 µM |  |  | 1.13 µM | 3.53 µM | 1.8 µM | 11.9 µM | 1.96 µM | 6.79 µM | 0.723 µM | 3.13 µM
